The target in one series is T1, purified cathepsin K (Homo sapiens, UniProt P43235).
T1 construct: Standards (10 ng) of human mature cathepsin K (pure Cat k mature)
T1 sequence (P43235 115-329): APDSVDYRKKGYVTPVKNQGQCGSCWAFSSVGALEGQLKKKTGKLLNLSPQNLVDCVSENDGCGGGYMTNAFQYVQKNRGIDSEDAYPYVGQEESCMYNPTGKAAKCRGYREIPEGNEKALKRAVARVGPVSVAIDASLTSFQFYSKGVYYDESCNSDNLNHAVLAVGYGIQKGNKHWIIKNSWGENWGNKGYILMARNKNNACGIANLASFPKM
The series can be described thus: Pure cathepsin K enzyme assay, hydrolysis of Z-Leu-Arg-Rhodamine in buffer A. It counts as biochemical. Conditions: 15 min preincubation; for IC50: pure cathepsin K in buffer A, 5 μM Z-Leu-Arg-Rhodamine, read-out: IC50 Pure Cat K. The method, then:
(§1) The rate of substrate hydrolysis is determined in supernatants from extracts of mock and cathepsin K expressing cells (5 μg/ml of total cell protein in buffer A) and a suspension of pure cathepsin K enzyme (3 nM resuspended in buffer A), in the presence of different concentrations of cystatin. Suspensions are preincubated with cystatin for 15 min, then the reaction is initiated with the addition of the substrate (5 μM Z-Leu-Arg-Rhodamine). Each data point is an average of duplicates and is reported as a percentage of inhibition of the control reaction.
(§2) The enzymatic activity of purified cathepsin K (3 nM) and transfectants' supernatants (5 μg/ml of protein) is determined by following the rate of hydrolysis of different peptide substrates conjugated to either AMC or rhodamine.
Assays are performed at room temperature in 200 μl of buffer A [50 mM MES (2-(N-morpholino)ethanesulfonic acid) buffer, pH 5.5, containing 2.5 mM EDTA, 2.5 mM dithiothreitol, 10% DMSO]. Substrate hydrolysis is monitored over a period of 10 min at room temperature in a Cytofluor 4000 fluorescent plate reader (Perseptive Biosystems, MA, USA). Cathepsin K activity measurements are calculated as initial rates over the first 5 min of the reaction.
(§3) Stable mock or hCat K expressing cells are resuspended in HBSS, pH 7.4 supplemented with 15 mM Hepes, 20 μg/ml cystatin and 100 μg/ml SBTI. Pure cathepsin K enzyme is resuspended in buffer A. Enzyme suspensions are preincubated with the designated inhibitor for 15 min before initiating the reaction with 5 μM of the substrate Z-Leu-Arg-Rhodamine.

The nature of series [1]: Cell permeability tested in CACO-2 cells. Conditions: unpublished results. It counts as in vitro ADME. (Caco-2 monolayers are a common model of the intestinal barrier.)
Series [2] has as its target T2, recombinant cathepsin K expressed by the CHO tranfectants (hCat K extract) (Homo sapiens, UniProt P43235).
T2 construct: expressed in transfected cells
T2 sequence (P43235 115-329): T1 sequence (P43235 115-329)
The series can be described thus: Enzyme assay in hCat K CHO cell extract supernatant, hydrolysis of Z-Leu-Arg-rhodamine. It counts as biochemical. Conditions: 5 μg/ml total cell protein in buffer A, 15 min preincubation, 5 μM substrate (FIG. 4). As for the experimental part: as §1
Cultured tranfectants are pelleted, resuspended in PBS and sonicated for 3×10 s using a Kontes Ultrasonic Disrupter. […] Protein concentrations are determined on all the supernatants using the Pierce Coomassie Protein Reagent (Pierce, Ill. USA) as described in the manufacturer's instruction.
as §2
Assays are performed at room temperature in 200 μl of buffer A [50 mM MES (2-(N-morpholino)ethanesulfonic acid) buffer, pH 5.5, containing 2.5 mM EDTA, 2.5 mM dithiothreitol, 10% DMSO]. […] Cathepsin K activity measurements are calculated as initial rates over the first 5 min of the reaction. […]

In series [3] the test system is extracellular protease activity of whole hCat K cells. The experiment in a line: Effect of cell-impermeable protease inhibitors on Z-Leu-Arg-Rhodamine hydrolysis by whole hCat K cells (FIG. 5). It counts as cell-based. To be noted: cystatin 20 μg/ml, EDTA 1 mM, SBTI 100 μg/ml, pepstatin A 0.7 μg/ml; 5 μM Z-Leu-Arg-Rhodamine (FIG. 5). As for the experimental part:
Cells are seeded in sterile 96-wells cell culture plates, grown for 24 h and then washed twice with PBS. Into each well, HBSS pH 7.4 containing 15 mM Hepes is added. The rate of substrate hydrolysis is determined in the presence of the designated protease inhibitors. Cells are preincubated with an inhibitor for 15 min, then the reaction initiated with the addition of the substrate, 5 μM Z-Leu-Arg-Rhodamine. […] The reported enzymatic activities constitute the initial rate of substrate hydrolysis and each data point is an average of duplicates.
To determine the effect of different inhibitors on cathepsin K activity, mock and hCat K whole cells are preincubated with 1 μl of vehicle (control) or an inhibitor for 15 min at room temperature followed by the addition of the substrate. All inhibitors are prepared as stock solutions in DMSO (dimethylsulfoxide) and assays performed with a final DMSO concentration of 1.5%.
Mock and hCat K cells are plated into 96 well tissue culture plates as described in materials and methods and the activity is determined using the Z-Leu-Arg-rhodamine substrate. […]

Series [4] has as its target T3, intracellular cathepsin K in hCat K cells (Homo sapiens, UniProt P43235).
T3 construct: expressed in transfected cells
T3 sequence (P43235 115-329): T1 sequence (P43235 115-329)
The series can be described thus: Flow cytometry (FACS) analysis of hCat K CHO cells with [Z-Leu-Arg]2-rhodamine. It counts as cell-based. Conditions: 5 μM Z-Leu-Arg-Rho, cystatin and SBTI present (FIG. 8C). As for the experimental part:
FIGS. 8A-8C show the results of the flow cytometry analysis of mock and hCat K expressing CHO cells. Pelleted cells are resuspended in Ca^2+ and Mg^2+ free PBS containing 20 μg/ml cystatin and 100 μg/ml SBTI. After a preincubation of 15 min at […], the substrate, 5 μM Z-Leu-Arg-rhodamine is added. Flow cytometry analysis is performed after a 15 min incubation at 37° C. with the substrate.
Stable mock or hCat K cell lines are trypsinized and resuspended at a density of 1 million cells/ml in Ca^2+ and Mg^2+ free PBS, 20 μg/ml cystatin and 100 μg/ml soybean trypsin inhibitor. Cells are preincubated for 15 min at 37° C. in the presence of vehicle or an inhibitor followed by the addition of the substrate, [Z-Leu-Arg]2-rhodamine (5 μM). Flow cytometry analysis is performed using a FACSCalibur system (Becton Dickinson, CA, USA) equipped with a CellQuest software. Voltage and fluorescence compensation adjustments are performed before each experiment using CaliBRITE beads (Becton Dickinson, CA, USA) and the FACSComp software (Becton Dickinson, CA, USA). A minimum of 10,000 events is collected for each sample. Cells are gated to exclude cell debris and abnormally large or aggregated cells.
(In flow cytometry, cells or beads pass a laser one at a time.)

A further series concerns bone resorption. Conditions: Delaisse et al., 1987; cited from earlier work.
For series [5], the target named is T4, intracellular cathepsin K in hCat K expressing CHO cells (Homo sapiens, UniProt P43235).
T4 construct: expressed in transfected cells
T4 sequence (P43235 115-329): T1 sequence (P43235 115-329)
The experiment in a line: Whole cell assay for cathepsin K in hCat K expressing CHO cells in presence of cystatin and SBTI. The series is classed as cell-based. To be noted: hCat K expressing cells in HBSS pH 7.4, 15 mM Hepes, 20 μg/ml cystatin, 100 μg/ml SBTI; 15 min preincubation, 5 μM Z-Leu-Arg-Rhodamine. The method, then:
Unless otherwise indicated, cathepsin K activity in intact cells is conducted by challenging the cells with 5 μM of the substrate [Z-Leu-Arg]2-rhodamine in the presence of cystatin and SBTI. Using sterile 96-wells culture plates (Nunc, DK, Denmark), 50,000 mock or Cat K expressing stable cell lines are dispensed into each well and incubated for 24 h. Using the Skanwasher 300 plate washer (Skatron, VA, USA) the cells are washed twice with PBS containing Ca^2+ and Mg^2+. Then, pre-incubated for 15 min at room temperature in 200 μl HBSS (Hank's buffered saline solution), pH 7.4, supplemented with 15 mM Hepes, 20 μg/ml cystatin (Calbiochem, CA, USA) and 100 μg/ml soybean trypsin inhibitor (Sigma, ON, Canada). The pre-incubated cells are then challenged with the addition of 2 μl of [Z-Leu-Arg]2-rhodamine (500 μM stock solution in DMSO to a final 5 μM concentration). Substrate hydrolysis is monitored at room temperature in a Cytofluor 4000 fluorescent plate reader (Perseptive Biosystems, MA, USA).
as §3

In series [6] the target is recombinant human cathepsin K expressed in CHO cells stably transfected with pcDNA3.1/hCat K (human) (UniProt P43235). The series can be described thus: cell-based or functional assay.
Series [7] concerns the target human mature cathepsin K (purified enzyme) (human) (UniProt P43235). The experiment in a line: cell-based or functional assay.

Entries after “also recorded” stand apart in the source; their conditions may differ.

As to cystatin [listing 1 of 2 here], at purified cathepsin K (3 nM pure enzyme in buffer A, 5 μM substrate (FIG. 4)), the “IC50 on hydrolysis of Z-Leu-Arg-rhodamine by purified cathepsin K” value stood at 0.2 µg/mL. The Cell permeability result in series [1] was “does not permeate into cells”. Besides, the “IC50 on hydrolysis of Z-Leu-Arg-rhodamine by hCat K extract” value in series [2] amounted to 0.09 µg/mL. Moreover, the “Effect on protease activity in whole hCat K cells” value in series [3] is listed as “decrease in protease activity; also recorded: effective inhibitor of extracellular cathepsin K activity”.

Consider `CCOC(=O)[C@H]1O[C@@H]1C(=O)N[C@@H](CC(C)C)C(=O)NCCC(C)C` [Inhibitor E64d], for which the “Effect on increase in fluorescence in hCat K cells” value in [4] is “inhibited; also recorded: repressed”.

The term IC50 denotes the concentration at which inhibition is half-maximal. With `CC(C)C[C@H](NC(=O)C1OC1C(=O)O)C(=O)NCCCCNC(=N)N` (stereo partly drawn) [Inhibitor E64, trans-epoxysuccinyl-L-leucylamide-(4-guanidino) butane], the “Inhibition of bone resorption” value with bone resorption is given as “effective in inhibiting bone resorption”. Further, the concentration for half-maximal inhibition (IC50) turned out to be 30 nM on purified cathepsin K and 576 nM in series [5].

Regarding cystatin [listing 2 of 2 here], the IC50, inhibition of the rate of hydrolysis of Z-Leu-Arg-rhodamine in [6] is 0.09 µg/mL; in [7], 0.2 µg/mL.

Turning to `CC(C)CCNC(=O)[C@H](CC(C)C)NC(=O)[C@H]1O[C@@H]1C(=O)O` [Inhibitor E64c], the half-maximal inhibitory concentration (IC50) at purified cathepsin K was determined as 41 nM; in series [5] it was 307 nM.

(Values after patent publication US6346373B1, “Whole cell assay for cathepsin K activity” (Merck Frosst Canada & Co.,, priority 1999, dated 2002).)
